Measured values: PubChem BioAssay AID2060485 (Molecular Pharmacology Branch, DTP, NCI, 2025)
pIC50: −log10 of the molar value.

System: A375 multi-cell spheroids with HUVEC/MSC, viability
Experiment: Anticancer human tumor A375 cell line growth inhibition [GQUAD];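 further: spheroids exposed to compounds for seven days before readout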
Settings: for pIC50: curve of first compound; for viability, T/C: stronger effect = lower value
Procedure, shortened: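 Viability of tumor cells grown as complex spheroids with endothelial and stromal cells, exposed to drug combinations. Top concentration at or near clinical Cmax (else 10 microM), diluted in half-log increments.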

[1] = second compound 0.0316 µM, first compound 0.0316 µM
[2] = second compound 0.0316 µM, first compound 0.1 µM
[3] = second compound 0.0316 µM, first compound 0.316 µM
[4] = second compound 0.0316 µM, first compound 1 µM
[5] = second compound 0.0316 µM, first compound 3.16 µM
[6] = second compound 0.0316 µM, first compound 10 µM
[7] = second compound 0.1 µM, first compound 0.0316 µM
[8] = second compound 0.1 µM, first compound 0.1 µM
[9] = second compound 0.1 µM, first compound 0.316 µM
[10] = second compound 0.1 µM, first compound 1 µM
[11] = second compound 0.1 µM, first compound 3.16 µM
[12] = second compound 0.1 µM, first compound 10 µM
[13] = second compound 0.316 µM, first compound 0.0316 µM
[14] = second compound 0.316 µM, first compound 0.1 µM
[15] = second compound 0.316 µM, first compound 0.316 µM
[16] = second compound 0.316 µM, first compound 1 µM
[17] = second compound 0.316 µM, first compound 3.16 µM
[18] = second compound 0.316 µM, first compound 10 µM
[19] = second compound 1 µM, first compound 0.0316 µM
[20] = second compound 1 µM, first compound 0.1 µM
[21] = second compound 1 µM, first compound 0.316 µM
[22] = second compound 1 µM, first compound 1 µM
[23] = second compound 1 µM, first compound 3.16 µM
[24] = second compound 1 µM, first compound 10 µM
[25] = second compound 3.16 µM, first compound 0.0316 µM
[26] = second compound 3.16 µM, first compound 0.1 µM
[27] = second compound 3.16 µM, first compound 0.316 µM
[28] = second compound 3.16 µM, first compound 1 µM
[29] = second compound 3.16 µM, first compound 3.16 µM
[30] = second compound 3.16 µM, first compound 10 µM
[31] = second compound 10 µM, first compound 0.0316 µM
[32] = second compound 10 µM, first compound 0.1 µM
[33] = second compound 10 µM, first compound 0.316 µM
[34] = second compound 10 µM, first compound 1 µM
[35] = second compound 10 µM, first compound 3.16 µM
[36] = second compound 10 µM, first compound 10 µM

C#Cc1c(F)ccc2cc(O)cc(-c3ncc4c(N5CC6CCC(C5)N6)nc(OCC56CCCN5CC(F)C6)nc4c3F)c12 (stereo not given) + CN(C)c1ccc(Nc2c3ccc(NC(=O)CCN4CCCC4)cc3nc3cc(NC(=O)CCN4CCCC4)ccc23)cc1
pIC50 (second compound 0.0316 µM): < 5.00 | pIC50 (second compound 0.1 µM): < 5.00 | pIC50 (second compound 0.316 µM): < 5.00 | pIC50 (second compound 1 µM): < 5.00 | pIC50 (second compound 3.16 µM): < 5.00 | pIC50 (second compound 10 µM): < 5.00 | viability, T/C [1]: 111% | viability, T/C [2]: 98.5% | viability, T/C [3]: 101% | viability, T/C [4]: 108% | viability, T/C [5]: 106% | viability, T/C [6]: 112% | viability, T/C [7]: 104% | viability, T/C [8]: 103% | viability, T/C [9]: 105% | viability, T/C [10]: 108% | viability, T/C [11]: 107% | viability, T/C [12]: 107% | viability, T/C [13]: 99.5% | viability, T/C [14]: 98.4% | viability, T/C [15]: 99.3% | viability, T/C [16]: 109% | viability, T/C [17]: 102% | viability, T/C [18]: 98.6% | viability, T/C [19]: 106% | viability, T/C [20]: 98% | viability, T/C [21]: 99.4% | viability, T/C [22]: 109% | viability, T/C [23]: 107% | viability, T/C [24]: 98.1% | viability, T/C [25]: 103% | viability, T/C [26]: 98.7% | viability, T/C [27]: 104% | viability, T/C [28]: 97.2% | viability, T/C [29]: 102% | viability, T/C [30]: 103% | viability, T/C [31]: 96.6% | viability, T/C [32]: 102% | viability, T/C [33]: 96.2% | viability, T/C [34]: 96.3% | viability, T/C [35]: 102% | viability, T/C [36]: 102%

CC(=O)O[C@H]1C(=O)[C@@]2(C)[C@H]([C@H](OC(=O)c3ccccc3)[C@]3(O)C[C@H](OC(=O)[C@H](O)[C@@H](NC(=O)c4ccccc4)c4ccccc4)C(C)=C1C3(C)C)[C@]1(OC(C)=O)CO[C@@H]1C[C@@H]2O + CN(C)c1ccc(Nc2c3ccc(NC(=O)CCN4CCCC4)cc3nc3cc(NC(=O)CCN4CCCC4)ccc23)cc1
pIC50 (second compound 0.0316 µM): 7.21 | pIC50 (second compound 0.1 µM): 7.21 | pIC50 (second compound 0.316 µM): 7.21 | pIC50 (second compound 1 µM): 7.21 | pIC50 (second compound 3.16 µM): 7.19 | pIC50 (second compound 10 µM): 7.26 | viability, T/C [1]: 86.3% | viability, T/C [2]: 23.1% | viability, T/C [3]: 12.3% | viability, T/C [4]: 11% | viability, T/C [5]: 11.4% | viability, T/C [6]: 10.6% | viability, T/C [7]: 86.5% | viability, T/C [8]: 23% | viability, T/C [9]: 12.1% | viability, T/C [10]: 13.2% | viability, T/C [11]: 11.7% | viability, T/C [12]: 12.9% | viability, T/C [13]: 88.1% | viability, T/C [14]: 21.3% | viability, T/C [15]: 12.2% | viability, T/C [16]: 10.6% | viability, T/C [17]: 12.8% | viability, T/C [18]: 15% | viability, T/C [19]: 87.5% | viability, T/C [20]: 23% | viability, T/C [21]: 10.2% | viability, T/C [22]: 12.8% | viability, T/C [23]: 10.4% | viability, T/C [24]: 12.9% | viability, T/C [25]: 95.4% | viability, T/C [26]: 23.2% | viability, T/C [27]: 11.7% | viability, T/C [28]: 10.7% | viability, T/C [29]: 11.6% | viability, T/C [30]: 11.9% | viability, T/C [31]: 76.8% | viability, T/C [32]: 22% | viability, T/C [33]: 13.3% | viability, T/C [34]: 11.7% | viability, T/C [35]: 10.9% | viability, T/C [36]: 12.4%

CCCS(=O)(=O)Nc1ccc(F)c(C(=O)c2c[nH]c3ncc(-c4ccc(Cl)cc4)cc23)c1F + CN(C)c1ccc(Nc2c3ccc(NC(=O)CCN4CCCC4)cc3nc3cc(NC(=O)CCN4CCCC4)ccc23)cc1
pIC50 (second compound 0.0316 µM): > 7.50 | pIC50 (second compound 0.1 µM): > 7.50 | pIC50 (second compound 0.316 µM): > 7.50 | pIC50 (second compound 1 µM): > 7.50 | pIC50 (second compound 3.16 µM): > 7.50 | pIC50 (second compound 10 µM): > 7.50 | viability, T/C [1]: 40.3% | viability, T/C [2]: 14.1% | viability, T/C [3]: 8.13% | viability, T/C [4]: 6.52% | viability, T/C [5]: 4.92% | viability, T/C [6]: 5.69% | viability, T/C [7]: 45% | viability, T/C [8]: 14.1% | viability, T/C [9]: 7.72% | viability, T/C [10]: 6.32% | viability, T/C [11]: 5.28% | viability, T/C [12]: 5.54% | viability, T/C [13]: 39.4% | viability, T/C [14]: 14.7% | viability, T/C [15]: 8.27% | viability, T/C [16]: 6.77% | viability, T/C [17]: 4.48% | viability, T/C [18]: 4.46% | viability, T/C [19]: 34.9% | viability, T/C [20]: 15% | viability, T/C [21]: 7.95% | viability, T/C [22]: 6.06% | viability, T/C [23]: 4.78% | viability, T/C [24]: 2.9% | viability, T/C [25]: 36.5% | viability, T/C [26]: 14.8% | viability, T/C [27]: 6.95% | viability, T/C [28]: 5.84% | viability, T/C [29]: 4.55% | viability, T/C [30]: 0.61% | viability, T/C [31]: 36.9% | viability, T/C [32]: 12.4% | viability, T/C [33]: 7% | viability, T/C [34]: 5.45% | viability, T/C [35]: 4.34% | viability, T/C [36]: 0.17%

COc1cccc2c1C(=O)c1c(O)c3c(c(O)c1C2=O)CC(O)(C(=O)CO)CC3OC1CC(N)C(O)C(C)O1 (stereo not given) + CN(C)c1ccc(Nc2c3ccc(NC(=O)CCN4CCCC4)cc3nc3cc(NC(=O)CCN4CCCC4)ccc23)cc1
pIC50 (second compound 0.0316 µM): 6.71 | pIC50 (second compound 0.1 µM): 6.67 | pIC50 (second compound 0.316 µM): 6.66 | pIC50 (second compound 1 µM): 6.65 | pIC50 (second compound 3.16 µM): 6.64 | pIC50 (second compound 10 µM): 6.63 | viability, T/C [1]: 107% | viability, T/C [2]: 70.2% | viability, T/C [3]: 34% | viability, T/C [4]: 18.7% | viability, T/C [5]: 2.21% | viability, T/C [6]: 0.12% | viability, T/C [7]: 105% | viability, T/C [8]: 75.2% | viability, T/C [9]: 34.6% | viability, T/C [10]: 18.5% | viability, T/C [11]: 2.59% | viability, T/C [12]: 0.11% | viability, T/C [13]: 110% | viability, T/C [14]: 79.7% | viability, T/C [15]: 32.2% | viability, T/C [16]: 18.3% | viability, T/C [17]: 2.01% | viability, T/C [18]: 0.1% | viability, T/C [19]: 107% | viability, T/C [20]: 80.7% | viability, T/C [21]: 33.2% | viability, T/C [22]: 17.7% | viability, T/C [23]: 2.55% | viability, T/C [24]: 0.13% | viability, T/C [25]: 112% | viability, T/C [26]: 82% | viability, T/C [27]: 34.2% | viability, T/C [28]: 18.6% | viability, T/C [29]: 2.88% | viability, T/C [30]: 0.15% | viability, T/C [31]: 103% | viability, T/C [32]: 77.5% | viability, T/C [33]: 38.3% | viability, T/C [34]: 17.9% | viability, T/C [35]: 4.36% | viability, T/C [36]: 0.25%

O=c1[nH]cc(F)c(=O)[nH]1 + CN(C)c1ccc(Nc2c3ccc(NC(=O)CCN4CCCC4)cc3nc3cc(NC(=O)CCN4CCCC4)ccc23)cc1
pIC50 (second compound 0.0316 µM): < 5.00 | pIC50 (second compound 0.1 µM): < 5.00 | pIC50 (second compound 0.316 µM): < 5.00 | pIC50 (second compound 1 µM): < 5.00 | pIC50 (second compound 3.16 µM): < 5.00 | pIC50 (second compound 10 µM): < 5.00 | viability, T/C [1]: 98.7% | viability, T/C [2]: 107% | viability, T/C [3]: 97.2% | viability, T/C [4]: 106% | viability, T/C [5]: 109% | viability, T/C [6]: 99.3% | viability, T/C [7]: 99.8% | viability, T/C [8]: 104% | viability, T/C [9]: 99.3% | viability, T/C [10]: 103% | viability, T/C [11]: 106% | viability, T/C [12]: 96.8% | viability, T/C [13]: 112% | viability, T/C [14]: 102% | viability, T/C [15]: 97.8% | viability, T/C [16]: 103% | viability, T/C [17]: 107% | viability, T/C [18]: 92.9% | viability, T/C [19]: 108% | viability, T/C [20]: 100% | viability, T/C [21]: 94.2% | viability, T/C [22]: 104% | viability, T/C [23]: 105% | viability, T/C [24]: 96% | viability, T/C [25]: 108% | viability, T/C [26]: 98.1% | viability, T/C [27]: 101% | viability, T/C [28]: 99.1% | viability, T/C [29]: 100% | viability, T/C [30]: 95.4% | viability, T/C [31]: 106% | viability, T/C [32]: 94.4% | viability, T/C [33]: 101% | viability, T/C [34]: 102% | viability, T/C [35]: 105% | viability, T/C [36]: 98.4%
